Assay results from US20110038948A1, “Methods of Reducing the Production of Reactive Oxygen Species and Methods of Screening or Identifying Compounds and Compositions that Reduce the Production of Reactive Oxygen Species” (UNIVERSITY OF TENNESSEE RESEARCH FOUNDATION, priority 2005, published 2011).

Experiments:
3T3-L1 adipocytes [1] = experiment: Intracellular ROS generation in cultured adipocytes (H2-DCFDA); type: cell-based, mouse; settings: compound plus glucose 30 mmol/L, 48 hours
Method: 3T3-L1 preadipocytes were incubated at a density of 8000 cells/cm^2 (10 cm^2 dish) and grown in Dulbecco's modified Eagle's medium (DMEM) containing 10% FBS and antibiotics (adipocyte medium) at 37° C. in 5% CO2 in air. Confluent preadipocytes were induced to differentiate with a standard differentiation medium consisting of DMEM-F10 (1:1, vol/vol) medium supplemented with 1% FBS, 1 μM dexamethasone, IBMX (0.5 mM) and antibiotics (1% Penicillin-Streptomycin). Preadipocytes were maintained in this differentiation medium for 3 days and subsequently cultured in adipocyte medium. Cultures were re-fed every 2-3 days to allow 90% of cells to reach full differentiation before conducting chemical treatment. Chemicals were freshly diluted in adipocyte medium before treatment. Cells were washed with fresh adipocyte medium, re-fed with medium containing the different treatments, and incubated at 37° C. in 5% CO2 in air before analysis. Cell viability was measured via trypan blue exclusion. […] Cells were loaded with H2-DCFDA (2 μmol/L) 30 minute before the end of the incubation period (48 h). After washing twice with PBS, cells were scraped and disrupted by sonication on ice (20 s). Fluorescence (emission 543 nm or 527 nm) and DNA content were then measured as described previously. The intensity of fluorescence was expressed as arbitrary units per ng DNA.

cyclin A = experiment: Cyclin A expression in cultured adipocytes; type: cell-based, mouse; settings: compound plus glucose 30 mmol/L, 48 hours
Method: 3T3-L1 preadipocytes were incubated at a density of 8000 cells/cm^2 (10 cm^2 dish) and grown in Dulbecco's modified Eagle's medium (DMEM) containing 10% FBS and antibiotics (adipocyte medium) at 37° C. in 5% CO2 in air. Confluent preadipocytes were induced to differentiate with a standard differentiation medium consisting of DMEM-F10 (1:1, vol/vol) medium supplemented with 1% FBS, 1 μM dexamethasone, IBMX (0.5 mM) and antibiotics (1% Penicillin-Streptomycin). Preadipocytes were maintained in this differentiation medium for 3 days and subsequently cultured in adipocyte medium. Cultures were re-fed every 2-3 days to allow 90% of cells to reach full differentiation before conducting chemical treatment. Chemicals were freshly diluted in adipocyte medium before treatment. […] Cell viability was measured via trypan blue exclusion. Adipocyte 18s, cyclin A, NADPH oxidase, and UCP2 were quantitatively measured using a Smart Cycler Real Time PCR System (Cepheid, Sunnyvale, Calif.) with a TaqMan 1000 Core Reagent Kit (Applied Biosystems, Branchburg, N.J.). […] Reactions of quantitative RT-PCR for standards and unknown samples were also performed according to the instructions of Smart Cycler System (Cepheid, Sunnyvale, Calif.) and TaqMan Real Time PCR Core Kit (Applied Biosystems, Branchburg, N.J.). The mRNA quantitation for each sample was further normalized using the corresponding 18s quantitation.

NADPH oxidase = NADPH oxidase expression in cultured adipocytes; type: cell-based, mouse; settings: glucose 30 mmol/L alone or plus compound, 48 hours
Method: 3T3-L1 preadipocytes were incubated at a density of 8000 cells/cm^2 (10 cm^2 dish) and grown in Dulbecco's modified Eagle's medium (DMEM) containing 10% FBS and antibiotics (adipocyte medium) at 37° C. in 5% CO2 in air. Confluent preadipocytes were induced to differentiate with a standard differentiation medium consisting of DMEM-F10 (1:1, vol/vol) medium supplemented with 1% FBS, 1 μM dexamethasone, IBMX (0.5 mM) and antibiotics (1% Penicillin-Streptomycin). Preadipocytes were maintained in this differentiation medium for 3 days and subsequently cultured in adipocyte medium. Cultures were re-fed every 2-3 days to allow 90% of cells to reach full differentiation before conducting chemical treatment. Chemicals were freshly diluted in adipocyte medium before treatment. Cells were washed with fresh adipocyte medium, re-fed with medium containing the different treatments, and incubated at 37° C. in 5% CO2 in air before analysis. Cell viability was measured via trypan blue exclusion. Adipocyte 18s, cyclin A, NADPH oxidase, and UCP2 were quantitatively measured using a Smart Cycler Real Time PCR System (Cepheid, Sunnyvale, Calif.) with a TaqMan 1000 Core Reagent Kit (Applied Biosystems, Branchburg, N.J.). The primers and probe sets were ordered from Applied Biosystems TaqMan® Assays-on-Demand™ Gene Expression primers and probe set collection according to manufacture's instruction. Pooled adipocyte total RNA was serial-diluted in the range of 1.5625-25 ng and used to establish a standard curve; total RNAs for unknown samples were also diluted in this range. Reactions of quantitative RT-PCR for standards and unknown samples were also performed according to the instructions of Smart Cycler System (Cepheid, Sunnyvale, Calif.) and TaqMan Real Time PCR Core Kit (Applied Biosystems, Branchburg, N.J.). The mRNA quantitation for each sample was further normalized using the corresponding 18s quantitation.

C2C12 myotubes = experiment: IL-15 release by myotubes (ELISA); type: cell-based, murine; settings: C2C12 myotubes, 48 hours
Method: IL-15 release in the medium was determined using ELISA. Data are corrected for DNA content. Values are presented as mean±SEM, n=6. Means with different letter differ with p<0.05.

IL-6 = IL-6 expression in RAW 264 macrophages; type: cell-based; settings: co-culture with differentiated 3T3-L1 adipocytes
Method: RAW 264 macrophages and 3T3-L1 preadipocytes (American Type Culture Collection) were incubated at a density of 8000 cells/cm2 (10 cm2 dish) and grown in Dulbecco's modified Eagle's medium (DMEM) containing 10% FBS and antibiotics (adipocyte medium) at 37° C. in 5% CO2 in air. Confluent 3T3-L1 preadipocytes were induced to differentiate with a standard differentiation medium consisting of DMEM-F10 (1:1, vol/vol) medium supplemented with 1% FBS, 1 μM dexamethasone, IBMX (0.5 mM) and antibiotics (1% Penicillin-Streptomycin). Preadipocytes were maintained in this differentiation medium for 3 days and subsequently cultured in adipocyte medium. […]
Cells were washed with fresh adipocyte medium, re-fed with medium containing the indicated treatments, and incubated at 37° C. in 5% CO2 for 48 hours before analysis. Cell viability was measured via trypan blue exclusion.
Human adipocytes (Zen-Bio, Inc.), 3T3-L1 adipocytes, RAW264 macrophages were obtained and co-cultured by using transwell inserts with 0.4 μm porous membranes (Corning) to separate adipocytes and macrophages. All data are expressed as mean±SEM. Data were evaluated for statistical significance by analysis of one-way or two-way variance (ANOVA; means with different letter differ, p<0.05). […]

3T3-L1 adipocytes [2] = experiment: Cytokine antibody array of culture medium; type: cell-based, mouse
Method: RAW 264 macrophages and 3T3-L1 preadipocytes (American Type Culture Collection) were incubated at a density of 8000 cells/cm2 (10 cm2 dish) and grown in Dulbecco's modified Eagle's medium (DMEM) containing 10% FBS and antibiotics (adipocyte medium) at 37° C. in 5% CO2 in air. Confluent 3T3-L1 preadipocytes were induced to differentiate with a standard differentiation medium consisting of DMEM-F10 (1:1, vol/vol) medium supplemented with 1% FBS, 1 μM dexamethasone, IBMX (0.5 mM) and antibiotics (1% Penicillin-Streptomycin). Preadipocytes were maintained in this differentiation medium for 3 days and subsequently cultured in adipocyte medium. Cultures were re-fed every 2-3 days to allow 90% cells to reach fully differentiation for 3T3-L1 adipocytes or grow to a confluence for RAW 264 before conducting chemical treatment.
Human adipocytes (Zen-Bio, Inc.), 3T3-L1 adipocytes, RAW264 macrophages were obtained and co-cultured by using transwell inserts with 0.4 μm porous membranes (Corning) to separate adipocytes and macrophages. All data are expressed as mean±SEM. Data were evaluated for statistical significance by analysis of one-way or two-way variance (ANOVA; means with different letter differ, p<0.05).
A TansSignal™ mouse cytokine antibody array kit (Panomics, Fremont, Calif.) was used to detect cytokine protein released in culture medium according to the manufacture's instruction. […]

- effect on NADPH oxidase expression (NADPH oxidase): stimulated
SMILES: C=C1/C(=C\C=C2/CCC[C@]3(C)[C@@H]([C@H](C)CCCC(C)(C)O)CC[C@@H]23)C[C@@H](O)C[C@@H]1O [calcitriol, 1,25-(OH)2-D3]
- effect on high glucose induced ROS production (3T3-L1 adipocytes [1]): greater stimulation of ROS production than either glucose alone or glucose plus GDP
- effect on glucose stimulated cyclin A expression (cyclin A): augmented
- effect on IL-15 release (C2C12 myotubes): inhibitory effects
- effect on IL-6 expression in macrophages (IL-6): further enhanced
- inflammatory cytokine production (3T3-L1 adipocytes [2]; co-culture of 3T3-L1 adipocytes with macrophages): further stimulated
- production of multiple inflammatory cytokine proteins (3T3-L1 adipocytes [2]; differentiated 3T3-L1 adipocytes cultured alone): up-regulated
